Assay results as given in PubChem BioAssay (NCI).
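Tested at 5 concentrations; 48 h exposure; 96-well plates; endpoints linearly interpolated, else capped at highest concentration. GI50 marks 50% less growth. Definition used: TGI = concentration required for complete inhibition of growth.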

Columns and labels:
Test in all cases: NCI-60 cell line screen, 48 h
[1] = tested on: T-47D breast
[2] = tested on: NCI-H226 lung
[3] = tested on: SNB-75 CNS
[4] = tested on: NCI-H522 lung
[5] = tested on: LOX IMVI melanoma
[6] = tested on: K-562 leukemia
[7] = tested on: MCF7 breast
[8] = tested on: A498 renal
[9] = tested on: CAKI-1 renal
[10] = tested on: PC-3 prostate
[11] = tested on: SK-MEL-28 melanoma
[12] = tested on: M14 melanoma
[13] = tested on: HCT-116 colon
[14] = tested on: U251 CNS
[15] = tested on: CCRF-CEM leukemia
[16] = tested on: RXF 393 renal
[17] = tested on: BT-549 breast
[18] = tested on: HT29 colon
[19] = tested on: MDA-MB-435
[20] = tested on: HCC-2998 colon
[21] = tested on: HS 578T breast
[22] = tested on: SR leukemia
[23] = tested on: KM12 colon
[24] = tested on: MDA-MB-231 breast
[25] = tested on: HCT-15 colon
[26] = tested on: TK-10 renal
[27] = tested on: MOLT-4 leukemia
[28] = tested on: UO-31 renal
[29] = tested on: RPMI-8226 leukemia
[30] = tested on: MALME-3M melanoma
[31] = tested on: OVCAR-4 ovarian
[32] = tested on: NCI/ADR-RES ovarian
[33] = tested on: IGROV1 ovarian
[34] = tested on: A549 NSCLC
[35] = tested on: SK-OV-3 ovarian
[36] = tested on: HOP-62 NSCLC
[37] = tested on: OVCAR-8 ovarian
[38] = tested on: SNB-19 CNS
[39] = tested on: HL-60(TB) leukemia
[40] = tested on: OVCAR-5 ovarian
[41] = tested on: COLO 205 colon
[42] = tested on: ACHN renal
[43] = tested on: SF-268 CNS
[44] = tested on: EKVX NSCLC
[45] = tested on: SW-620 colon
[46] = tested on: UACC-257 melanoma
[47] = tested on: 786-0 renal
[48] = tested on: SK-MEL-2 melanoma
[49] = tested on: SN12C renal
[50] = tested on: SF-539 CNS
[51] = tested on: SF-295 CNS
[52] = tested on: HOP-92 NSCLC
[53] = tested on: NCI-H23 lung
[54] = tested on: UACC-62 melanoma
[55] = tested on: NCI-H460 lung
[56] = tested on: DU-145 prostate

CS(=O)(=O)Nc1cc(-c2ccc3ncc(C#N)c(NCc4ccccc4O)c3c2)cnc1Cl
GI50 [1]: 0.122 µM
TGI [1]: 4.97 µM
GI50 [2]: 0.908 µM
TGI [2]: 32.2 µM
GI50 [3]: < 0.0378 µM
TGI [3]: 0.743 µM
GI50 [4]: 0.46 µM
TGI [4]: 6.26 µM
GI50 [5]: 0.397 µM
TGI [5]: 2.18 µM
GI50 [6]: 0.465 µM
TGI [6]: > 100 µM
GI50 [7]: 0.288 µM
TGI [7]: 9.27 µM
GI50 [8]: 0.227 µM
TGI [8]: 0.835 µM
GI50 [9]: 0.325 µM
TGI [9]: 2.91 µM
GI50 [10]: 0.531 µM
TGI [10]: 13.2 µM
GI50 [11]: 0.387 µM
TGI [11]: 7.38 µM
GI50 [12]: 0.532 µM
TGI [12]: 10.9 µM
GI50 [13]: 0.408 µM
TGI [13]: 2.96 µM
GI50 [14]: 0.3 µM
GI50 [15]: 0.243 µM
TGI [15]: > 100 µM
GI50 [16]: 0.212 µM
TGI [16]: 1.28 µM
GI50 [17]: 0.167 µM
TGI [17]: 1.34 µM
GI50 [18]: 1.09 µM
TGI [18]: 8.63 µM
GI50 [19]: 0.539 µM
TGI [19]: 9.85 µM
GI50 [20]: 0.745 µM
TGI [20]: 6.51 µM
GI50 [21]: 0.118 µM
TGI [21]: 0.612 µM
GI50 [22]: 0.231 µM
TGI [22]: > 100 µM
GI50 [23]: 0.652 µM
TGI [23]: 7.06 µM
GI50 [24]: 0.585 µM
TGI [24]: 4.04 µM
GI50 [25]: 0.516 µM
TGI [25]: 12 µM
GI50 [26]: 0.375 µM
TGI [26]: 3.42 µM
GI50 [27]: 0.418 µM
TGI [27]: > 100 µM
GI50 [28]: 0.417 µM
TGI [28]: > 25.9 µM
GI50 [29]: 0.609 µM
TGI [29]: 3.39 µM
GI50 [30]: 0.184 µM
TGI [30]: 1.15 µM
GI50 [31]: 0.468 µM
TGI [31]: 6.41 µM
GI50 [32]: 3.09 µM
TGI [32]: > 100 µM
GI50 [33]: 0.229 µM
TGI [33]: 1.29 µM
GI50 [34]: 1.96 µM
TGI [34]: 13 µM
GI50 [35]: 0.612 µM
TGI [35]: 3.68 µM
GI50 [36]: 0.48 µM
TGI [36]: 13.3 µM
GI50 [37]: 0.718 µM
TGI [37]: 16.8 µM
GI50 [38]: 0.507 µM
TGI [38]: 15.1 µM
GI50 [39]: 0.808 µM
TGI [39]: 21.7 µM
GI50 [40]: 1.33 µM
TGI [40]: 19 µM
GI50 [41]: 0.674 µM
TGI [41]: 2.26 µM
GI50 [42]: 1.7 µM
TGI [42]: > 63 µM
GI50 [43]: 0.248 µM
TGI [43]: 3.12 µM
GI50 [44]: 1.2 µM
TGI [44]: 7.1 µM
GI50 [45]: 0.47 µM
TGI [45]: 6.96 µM
GI50 [46]: 0.736 µM
TGI [46]: 7.06 µM
GI50 [47]: 0.693 µM
TGI [47]: > 100 µM
GI50 [48]: 0.175 µM
TGI [48]: 0.554 µM
GI50 [49]: 0.45 µM
TGI [49]: > 65 µM
GI50 [50]: 0.4 µM
TGI [50]: 3.2 µM
GI50 [51]: 0.681 µM
TGI [51]: 5.19 µM
GI50 [52]: 0.117 µM
TGI [52]: 0.725 µM
GI50 [53]: 0.6 µM
TGI [53]: 15.8 µM
GI50 [54]: 0.282 µM
TGI [54]: 2.58 µM
GI50 [55]: 1.42 µM
TGI [55]: 18.4 µM
GI50 [56]: 0.613 µM
TGI [56]: 12.4 µM
